Experimental data reported in patent publication US9376433B2, “(AZA-)isoquinolinone derivatives” (MERCK PATENT GMBH, priority 2012, dated 2016).
pEC50, pIC50: −log10 of the molar value.

Columns and labels:
tankyrase 1/2 = experiment: Cellular inhibition of tankyrase: increase of Axin2 level in DLD1 cells (Luminex); type: cell-based; conditions: DLD1 colon carcinoma cells, 24 hours, read-out: EC50 tankyrase 1/2 (cell assay)
Description: Measurement of Cellular Inhibition of Tankyrase
Since Tankyrases have been described to modulate cellular level of Axin2 (Huang et al., 2009; Nature) the increase of Axin2 level is used as read-out for determination of cellular inhibition of Tankyrases in a Luminex based assay.
Cells of the colon carcinoma cell line DLD1 are plated in 96 well plates with 1.5×10^4 cells per well. Next day, cells are treated with a serial dilution of test compound in seven steps as triplicates with a final DMSO concentration of 0.3%. After 24 hours, cells are lysed in lysis buffer (20 mM Tris/HCl pH 8.0, 150 mM NaCl, 1% NP40, 10% Glycerol) and lysates are cleared by centrifugation through a 96 well filter plate (0.65 μm). Axin2 protein is isolated from cell lysates by incubation with a monoclonal anti-Axin2 antibody (R&D Systems #MAB6078) that is bound to fluorescent carboxybeads. Then, bound Axin2 is specifically detected with a polyclonal anti-Axin2 antibody (Cell Signaling #2151) and an appropriate PE-fluorescent secondary antibody. The amount of isolated Axin2 protein is determined in a Luminex^200 machine (Luminex Corporation) according to the manufacturer's instruction by counting 100 events per well. Inhibition of Tankyrase by test compounds results in higher levels of Axin2 which directly correlates with an increase of detectable fluorescence. As controls cells are treated with solvent alone (neutral control) and with a Tankyrase reference inhibitor IWR-2 (3E-06 M) which refers as control for maximum increase of Axin2. For analysis, the obtained data are normalized against the untreated solvent control and fitted for determination of the EC50 values using the Assay Explorer software (Accelrys).

Tankyrase-2 = target: T1, Tankyrase-2 (Homo sapiens, UniProt Q9H2K2); experiment: Tankyrase 2 autoparsylation assay (HTRF enzyme assay); type: biochemical; conditions: GST-tagged Tankyrase-2 (873-1166 aa)
T1 construct: GST-tagged Tankyrase-2 (873-1166 aa)
T1 sequence (Q9H2K2 873-1166): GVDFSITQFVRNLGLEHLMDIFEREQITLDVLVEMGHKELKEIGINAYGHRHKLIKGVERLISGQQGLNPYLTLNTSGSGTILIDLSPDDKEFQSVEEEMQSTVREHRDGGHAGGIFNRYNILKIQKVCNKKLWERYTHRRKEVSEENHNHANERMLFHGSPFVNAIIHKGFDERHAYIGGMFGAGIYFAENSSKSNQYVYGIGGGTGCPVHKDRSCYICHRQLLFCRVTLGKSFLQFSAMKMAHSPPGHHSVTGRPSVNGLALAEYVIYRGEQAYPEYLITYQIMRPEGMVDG
Description: Biochemical activity testing of Tankyrase 1 and 2: Autoparsylation assay
The autoparsylation assay is run in two steps: the enzymatic reaction in which GST-tagged Tankyrase-1, resp Tankyrase-2 transferred biotinylated ADP-ribose to itself from biotinylated NAD as co-substrate and the detection reaction where a time resolved FRET between cryptate labelled anti-GST bound to the GST tag of the enzyme and Xlent® labelled-streptavidin bound the biotin-parsylation residue is analysed. The autoparsylation activity was detectable directly via the increase in HTRF signal.
The autoparsylation assay is performed as 384-well HTRF® (Cisbio, Codolet, France) assay format in Greiner low volume nb 384-well microtiter plates and is used for high throughput screen. 250 nM GST-tagged Tankyrase-1 (1023-1327 aa), respectively about 250 nM GST-tagged Tankyrase-2 (873-1166 aa) and 5 μM bio-NAD (Biolog, Life science Inst., Bremen, Germany) as co-substrate are incubated in a total volume of 5 μl (50 mM HEPES, 4 mM Mg-chloride, 0.05% Pluronic F-68, 1.4 mM DTT, 0.5% DMSO, pH 7.7) in the absence or presence of the test compound (10 dilution concentrations) for 90 min at 30° C. The reaction is stopped by the addition of 1 μl 50 mM EDTA solution. 2 μl of the detection solution (1.6 μM SA-Xlent® (Cisbio, Codolet, France), 7.4 nM Anti-GST-K® (Eu-labelled anti-GST, Cisbio, Codolet, France) in 50 mM HEPES, 800 mM KF, 0.1% BSA, 20 mM EDTA, 0.1% CHAPS, pH 7.0) are added. After 1 h incubation at room temperature the HTRF is measured with an Envision multimode reader (Perkin Elmer LAS Germany GmbH) at excitation wavelength 340 nm (laser mode) and emission wavelengths 615 nm and 665 nm. The ratio of the emission signals is determined. The full value used is the inhibitor-free reaction. The pharmacological zero value used is XAV-939 (Tocris) in a final concentration of 5 μM. The inhibitory values (IC50) are determined using either the program Symyx Assay Explorer® or Condosseo® from GeneData.

TNKS1 = target: T2, TNKS1 (Homo sapiens, UniProt O95271); experiment: TNKS1 activity ELISA (autoparsylation assay); type: biochemical; conditions: GST-tagged Tnks-1 (1023-1327 aa), luminescence
T2 construct: GST-tagged Tnks-1 (1023-1327 aa, prepared in-house); made in house
T2 sequence (O95271 1023-1327): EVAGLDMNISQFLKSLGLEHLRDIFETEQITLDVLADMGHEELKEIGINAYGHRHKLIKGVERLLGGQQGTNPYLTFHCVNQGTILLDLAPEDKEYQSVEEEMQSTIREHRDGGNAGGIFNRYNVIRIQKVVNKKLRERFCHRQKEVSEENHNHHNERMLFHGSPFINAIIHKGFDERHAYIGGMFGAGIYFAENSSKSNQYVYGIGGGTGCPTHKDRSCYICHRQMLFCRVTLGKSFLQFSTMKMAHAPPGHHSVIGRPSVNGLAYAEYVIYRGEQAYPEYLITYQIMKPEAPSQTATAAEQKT
Description: Description of the TNKS1 and TNKS2 ELISA Assay
Biochemical activity testing of TNKS 1 and 2: activity ELISA (Autoparsylation assay)
For analysis of autoparsylation activity of TNKS 1 and 2 an activity ELISA iss performed: In the first step GST tagged TNKS is captured on a Glutathione coated plate. Then the activity assay with biotinylated NAD is performed in the absence/presence of the compounds. During the enzymatic reaction GST tagged TNKS transfers biotinylated ADP-ribose to itself from biotinylated NAD as co-substrate. For the detection streptavidin-HRP conjugate is added that binds to the biotinylated TNKS and is thereby captured to the plates. The amount of biotinylated resp. autoparsylated TNKS is detected with a luminescence substrate for HRP. The level of the luminescence signal correlats directly with the amount of autoparsylated TNKS and therefore with activity of TNKS.
The acitivity ELISA is performed in 384 well Glutathione coated microtiter plates (Express capture Glutathione coated plate, Biocat, Heidelberg, Germany). The plates are pre-equilibrated with PBS. Then the plates are incubated with 50 μl 20 ng/well GST-tagged Tnks-1 (1023-1327 aa, prepared in-house), respectively GST-tagged Tnks-2 (873-1166 aa, prepared in-house) in assay buffer (50 mM HEPES, 4 mM Mg-chloride, 0.05% Pluronic F-68, 2 mM DTT, pH 7.7) overnight at 4° C. The plates are washed 3 times with PBS-Tween-20. The wells are blocked by incubation at room temperature for 20 minutes with 50 μl blocking buffer (PBS, 0.05% Tween-20, 0.5% BSA). Afterwards the plates are washed 3 times with PBS-Tween-20. The enzymatic reaction is performed in 50 μl reaction solution (50 mM HEPES, 4 mM Mg-chloride, 0.05% Pluronic F-68, 1.4 mM DTT, 0.5% DMSO, pH 7.7) with10 μM bio-NAD (Biolog, Life science Inst., Bremen, Germany) as co-substrate in the absence or presence of the test compound (10 dilution concentrations) for 1 hour at 30° C. The reaction is stopped by 3 times washing with PBS-Tween-20. For the detection 50 μl of 20 ng/μl Streptavidin, HRP conjugate (MoBiTec, Göttingen, Germany) in PBS/0.05% Tween-20/0.01% BSA are added and the plates are incubated for 30 minutes at room temperature. After three times washing with PBS-Tween-20 50 μl of SuperSignal ELISA Femto Maximum sensitivity substrate solution (ThermoFisherScientific (Pierce), Bonn, Germany) are added. Following a 1 minute incubation at room temperature luminescence signals are measured with an Envision multimode reader (Perkin Elmer LAS Germany GmbH) at 700 nm. The full value used is the inhibitor-free reaction. The pharmacological zero value used is XAV-939 (Tocris) in a final concentration of 5 μM. The inhibitory values (IC50) are determined using either the program Symyx Assay Explorer® or Condosseo® from GeneData.

SMILES | pEC50 (tankyrase 1/2) | pIC50 (Tankyrase-2) | pIC50 (TNKS1)
CC(C)(O)c1ccc(-c2cc3ccccc3c(=O)[nH]2)cc1 [Compound A3, 3-[4-(1-hydroxy-1-methyl-ethyl)-phenyl]-2H-isoquinolin-1-one] | > 6.52 | > 6.52 | > 6.52
CC(C)(O)c1ccc(-c2cc3cc(F)ccc3c(=O)[nH]2)cc1 [Compound A5, 6-fluoro-3-[4-(1-hydroxy-1-methyl-ethyl)-phenyl]-2H-isoquinolin-1-one] | 5.52 to 6.52 | 5.52 to 6.52 | > 6.52
CC(C)(O)c1ccc(-c2cc3ccc(F)cc3c(=O)[nH]2)cc1 [Compound A6, 7-fluoro-3-[4-(1-hydroxy-1-methyl-ethyl)-phenyl]-2H-isoquinolin-1-one] | > 6.52 | > 6.52 | > 6.52
Cc1ccc(-c2cc3ccc(F)cc3c(=O)[nH]2)cc1 [Compound A9, 7-fluoro-3-p-tolyl-2H-isoquinolin-1-one] | 5.52 to 6.52 | > 6.52 | > 6.52
Cc1ccc(-c2cc3cc(F)ccc3c(=O)[nH]2)cc1 [Compound A10, 6-fluoro-3-p-tolyl-2H-isoquinolin-1-one] | 4.30 to 5.52 | 5.52 to 6.52 | > 6.52
Cc1ccc(-c2cc3cccc(F)c3c(=O)[nH]2)cc1 [Compound A11, 8-fluoro-3-p-tolyl-2H-isoquinolin-1-one] | 5.52 to 6.52 | > 6.52 | > 6.52
Cc1ccc(-c2cc3c(F)cccc3c(=O)[nH]2)cc1 [Compound A12, 5-fluoro-3-p-tolyl-2H-isoquinolin-1-one] | 5.52 to 6.52 | 5.52 to 6.52 | > 6.52
Cn1cc(-c2ccc(-c3cc4ccncc4c(=O)[nH]3)cc2)cn1 [Compound A14, 3-[4-(1-Methyl-1H-pyrazol-4-yl)-phenyl]-2H-[2,7]naphthyridin-1-one] | 5.52 to 6.52 | 5.52 to 6.52 | > 6.52
COC(C)(C)c1ccc(-c2cc3ccccc3c(=O)[nH]2)cc1 [Compound A15, 3-[4-(1-methoxy-1-methyl-ethyl)-phenyl]-2H-isoquinolin-1-one] | > 6.52 | 5.52 to 6.52 | > 6.52
CC(C)(OCCO)c1ccc(-c2cc3ccc(F)cc3c(=O)[nH]2)cc1 [Compound A16, 7-fluoro-3-{4-[1-(2-hydroxy-ethoxy)-1-methyl-ethyl]-phenyl}-2H-isoquinolin-1-one] | > 6.52 | > 6.52 | > 6.52
C=C(C)c1ccc(-c2cc3ccc(F)cc3c(=O)[nH]2)cc1 [Compound A17, 7-fluoro-3-(4-isopropenyl-phenyl)-2H-isoquinolin-1-one] | > 6.52 | 5.52 to 6.52 | > 6.52
Cn1cc(-c2ccc(-c3cc4ccc(F)cc4c(=O)[nH]3)cc2)cn1 [Compound A18, 7-fluoro-3-[4-(1-methyl-1H-pyrazol-4-yl)-phenyl]-2H-isoquinolin-1-one] | > 6.52 | 5.52 to 6.52 | > 6.52
CC(C)(N)c1ccc(-c2cc3ccc(F)cc3c(=O)[nH]2)cc1 [Compound A20, 3-[4-(1-amino-1-methyl-ethyl)phenyl]-7-fluoro-2H-isoquinolin-1-one] | 5.52 to 6.52 | > 6.52 | > 6.52
CC(C)(O)c1ccc(-c2cc3cnccc3c(=O)[nH]2)cc1 [Compound A23, 3-[4-(1-hydroxy-1-methyl-ethyl)phenyl]-2H-2,6-naphthyridin-1-one] | 5.52 to 6.52 | > 6.52 | > 6.52
CC(C)(O)c1ccc(-c2cc3ccncc3c(=O)[nH]2)cc1 [Compound A24, 3-[4-(1-hydroxy-1-methyl-ethyl)phenyl]-2H-2,7-naphthyridin-1-one] | 5.52 to 6.52 | > 6.52 | > 6.52
CC(C)(O)c1ccc(-c2cc3cccc(F)c3c(=O)[nH]2)cc1 [Compound A27, 8-fluoro-3-[4-(1-hydroxy-1-methyl-ethyl)phenyl]-2H-isoquinolin-1-one] | > 6.52 | > 6.52 | > 6.52
CC(C)(O)c1ccc(-c2cc3c(F)cccc3c(=O)[nH]2)cc1 [Compound A28, 5-fluoro-3-[4-(1-hydroxy-1-methyl-ethyl)phenyl]-2H-isoquinolin-1-one] | > 6.52 | > 6.52 | > 6.52
Cc1ccc(-c2cc3c(C)cccc3c(=O)[nH]2)cc1 [Compound A29, 5-methyl-3-(p-tolyl)-2H-isoquinolin-1-one] | 5.52 to 6.52 | 5.52 to 6.52 | > 6.52
CC(C)(O)c1ccc(-c2cc3c(F)cc(F)cc3c(=O)[nH]2)cc1 [Compound A33, 5,7-difluoro-3-[4-(1-hydroxy-1-methyl-ethyl)-phenyl]-2H-isoquinolin-1-one] | > 6.52 | 5.52 to 6.52 | > 6.52
